Assay results from patent US20150119352A1, “DINUCELOSIDE POLYPHOSPHATES FOR THE TREATMENT OF PAIN” (GlobalAcorn Ltd., priority 2012, published 2015).
“Also recorded” adds a separate entry of the source.

Legend:
rats = assay: Hargreaves plantar test under complete Freund adjuvant-induced thermal hyperalgesia; type: in vivo, rat; conditions: for antinociceptive effect on CFA-induced thermal hyperalgesia (paw withdrawal latency): injection (100 μL) into the inflamed hind paw
Description: FIG. 8. […] A. Time-course of the effects of 1 and 20 μM (100 μL) of AppCH2ppA and AppNHppA on the paw withdrawal latency (PWL). B. Bar-graphs of the effects of AppCH2ppA and AppNHppA on the integral PWL.
FIG. 10. […] A. Time-course of the effects of i.t. AppCH2ppA on complete Freund adjuvant-induced thermal hyperalgesia (Hargreaves plantar test). B. Bar-graphs of the effects of i.t. AppCH2ppA on rat PWL.

[1] = molecular target: T1, rat homomeric P2X7 receptors (Rattus norvegicus, UniProt Q64663); assay: Whole-cell patch clamp, rat homomeric P2X7 receptors; type: cell-based; conditions: 1 μM; ATP
T1 construct: expressed in transfected cells
T1 sequence (Q64663 1-595): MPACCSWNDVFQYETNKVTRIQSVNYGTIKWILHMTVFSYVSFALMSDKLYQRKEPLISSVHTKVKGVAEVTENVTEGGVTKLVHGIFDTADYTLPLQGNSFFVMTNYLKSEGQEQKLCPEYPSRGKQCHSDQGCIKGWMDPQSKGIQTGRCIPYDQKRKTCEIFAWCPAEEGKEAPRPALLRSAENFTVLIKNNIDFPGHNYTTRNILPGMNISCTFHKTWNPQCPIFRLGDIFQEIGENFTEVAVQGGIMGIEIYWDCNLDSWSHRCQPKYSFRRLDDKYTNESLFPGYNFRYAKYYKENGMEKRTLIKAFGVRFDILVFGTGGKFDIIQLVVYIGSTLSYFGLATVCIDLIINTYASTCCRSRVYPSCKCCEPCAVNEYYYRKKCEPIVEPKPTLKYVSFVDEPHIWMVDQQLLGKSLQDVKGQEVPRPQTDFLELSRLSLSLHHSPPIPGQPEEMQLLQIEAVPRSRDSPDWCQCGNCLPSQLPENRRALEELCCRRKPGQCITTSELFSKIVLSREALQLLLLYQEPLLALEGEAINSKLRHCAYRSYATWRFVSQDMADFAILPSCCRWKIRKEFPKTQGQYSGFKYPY
Description: (§1) FIG. 4. […] A. Example traces of responses induced by 10 μM ATP applied for 2 s every 2 min to HEK cells expressing rat homomeric P2X2 receptors in the presence and absence of 1 μM AppNHppA. B. Comparison of currents induced by the full agonist of P2X2 receptors, ATP, in the presence of 1 μM AppNHppA (right) and absence (left). C. The time course of the current in the presence and absence of 1 μM AppNHppA. D. Comparison of currents induced by the full agonist of rat homomeric P2X4 and P2X7 receptors, ATP, in the presence of 1 μM AppNHppA (right) and absence (left). Experiments were performed as in FIG. 2.
(§2) Trigeminal, nodose, DRG neurons or HEK cells were recorded in the whole-cell configuration while being continuously superfused (at 2 mL/min) with control solution containing (in mM): 152 NaCl, 5 KCl, 1 MgCl2, 2 CaCl2, 10 glucose, and 10 HEPES; pH was adjusted to 7.4 with NaOH and osmolarity was adjusted to 320 mOsM with glucose. […] Responses to selective P2X3 receptor agonist α,β-methylene-ATP (α,β-meATP; resistant to ectoATPase hydrolysis, Sigma-Aldrich) were measured using an EPC-9 amplifier and HEKA Patch Master software (HEKA Electronik, Germany). Cells were voltage-clamped at −70 mV. In most cells, series resistance was compensated by 80%. […]

[2] = molecular target: T2, rat homomeric P2X2 receptors (Rattus norvegicus, UniProt P49653); assay: Whole-cell patch clamp on HEK cells expressing rat homomeric P2X2 receptors; type: cell-based; conditions: 1 μM; 10 μM ATP
T2 construct: expressed in transfected cells; host or cells: HEK 293
T2 sequence (P49653 1-472): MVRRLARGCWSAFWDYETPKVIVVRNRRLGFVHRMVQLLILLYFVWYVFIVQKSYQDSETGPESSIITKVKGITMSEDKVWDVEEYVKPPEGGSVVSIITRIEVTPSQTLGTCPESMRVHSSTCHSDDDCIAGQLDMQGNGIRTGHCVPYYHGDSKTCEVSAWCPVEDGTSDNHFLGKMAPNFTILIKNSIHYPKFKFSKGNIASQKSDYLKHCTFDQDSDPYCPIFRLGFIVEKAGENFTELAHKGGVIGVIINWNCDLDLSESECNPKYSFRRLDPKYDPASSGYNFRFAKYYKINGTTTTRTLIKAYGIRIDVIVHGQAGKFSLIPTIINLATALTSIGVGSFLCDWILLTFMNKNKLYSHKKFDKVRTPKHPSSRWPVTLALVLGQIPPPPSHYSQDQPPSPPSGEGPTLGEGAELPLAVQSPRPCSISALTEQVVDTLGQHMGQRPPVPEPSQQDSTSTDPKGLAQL
Description: as §1, §2

Structure (SMILES)	antinociceptive effect on CFA-induced thermal hyperalgesia (paw withdrawal latency) (rats)	antinociceptive effect (rats; intra-thecal administration, 20 μM)	antinociceptive effect (rats; intraplantar administration)	antinociceptive effect of intrathecal compared with intraplantar injection (rats; intrathecal 20 μM, 100 μL)	effect of local peripheral intraplantar injection relative to intrathecal injection (rats; rat, in vivo)	effect on P2X7 receptor-mediated currents [1]	effect on P2X2 receptor-mediated currents [2]
Nc1ncnc2c1ncn2[C@@H]1O[C@H](COP(=O)(O)OP(=O)(O)CP(=O)(O)OP(=O)(O)OC[C@H]2O[C@@H](n3cnc4c(N)ncnc43)C(O)C2O)C(O)C1O (stereo in doubt) [AppCH2ppA]	antinociceptive effect was observed	27%	53%	weaker delayed antinociceptive effect; also recorded: less pronounced analgesia	two-fold higher effect	–	–
Nc1ncnc2c1ncn2[C@@H]1O[C@H](COP(=O)(O)OP(=O)(O)NP(=O)(O)OP(=O)(O)OC[C@H]2O[C@@H](n3cnc4c(N)ncnc43)C(O)C2O)C(O)C1O (stereo in doubt) [AppNHppA]	antinociceptive effect was observed	–	–	–	–	not observed to produce any effects; also recorded: non-inhibitory effect	not observed to produce any effects; also recorded: non-inhibitory effect
